The values that follow are results of earlier work, collected in patent US20090148532A1, “Preparation of controlled release skeletal muscle relaxant dosage forms” (priority 2007, published 2009).

The conditions of the data set: after oral administration.

Turning to `CN(C)CCC=C1c2ccccc2C=Cc2ccccc21` [Cyclobenzaprine], the Elimination half-life entry is on record as “one to three”.
